# Assay results from patent publication US6420381B1, “Naphthyridine derivatives” (Sumitomo Pharmaceuticals Company, Limited, priority 1998, dated 2002).
# Structures can show the parent of a compound that is named as a salt.
# Experiments:
# ACAT [1] = assay: Assay of ACAT inhibitory activity in a specimen prepared from rabbit liver; assay type: biochemical, New Zealand white rabbit; settings: enzyme specimen from liver of cholesterol-fed rabbit, [1-14C]oleoyl-CoA
# Description: 1. Assay of ACAT inhibitory activity in a specimen prepared from rabbit liver:
# An enzyme specimen ACAT was prepared according to the method disclosed in the literature: J. Lipid. Research, 30, 681-690, 1989, from the liver of a New Zealand white rabbit, which had been fed with 1% cholesterol feed for one month. The ACAT activity was determined according to the method disclosed in the literature: J. Lipid Research, 24, 1127-1134, 1983, i.e., using radioactive [1-^14C]oleoyl-CoA and endogenous cholesterol contained in the liver microsome, and calculated from the radioactivity of the labeled cholesterol oleate.
# ACAT [2] = biological target: T1, ACAT (Rattus norvegicus, UniProt O70536); assay: Assay of ACAT inhibitory activity in a macrophage derived from rat peritoneal; assay type: cell-based; settings: [9,10-3H]oleic acid
# T1 construct: The rat peritoneal-derived macrophage was prepared; endogenous in cells; host or cells: rat peritoneal macrophages (primary)
# T1 sequence (O70536 1-545): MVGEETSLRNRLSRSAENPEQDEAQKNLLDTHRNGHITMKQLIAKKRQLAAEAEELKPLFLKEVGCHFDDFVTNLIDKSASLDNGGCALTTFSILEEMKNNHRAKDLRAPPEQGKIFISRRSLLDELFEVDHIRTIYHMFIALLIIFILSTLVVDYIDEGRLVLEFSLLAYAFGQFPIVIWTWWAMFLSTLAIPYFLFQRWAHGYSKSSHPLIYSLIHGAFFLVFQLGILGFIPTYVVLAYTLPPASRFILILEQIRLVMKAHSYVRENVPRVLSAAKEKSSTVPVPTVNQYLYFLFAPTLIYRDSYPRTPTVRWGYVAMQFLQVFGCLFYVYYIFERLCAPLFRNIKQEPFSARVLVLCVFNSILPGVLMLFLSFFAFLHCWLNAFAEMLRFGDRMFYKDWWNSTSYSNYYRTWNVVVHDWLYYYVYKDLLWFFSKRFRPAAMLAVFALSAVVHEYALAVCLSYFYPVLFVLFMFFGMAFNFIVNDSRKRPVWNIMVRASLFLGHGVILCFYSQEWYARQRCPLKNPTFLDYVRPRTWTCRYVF
# Description: 2. Assay of ACAT inhibitory activity in a macrophage derived from rat peritoneal:
# The rat peritoneal-derived macrophage was prepared according to the method disclosed in the literature: Biochimica et Biophysica Acta, 1126, 73-80, 1992. The ACAT activity was determined by a modified method of the method disclosed in the above literature: Biochimica et Biophysica Acta, 1126, 73-80, 1992, i.e., using radioactive [9,10-^3H]oleic acid and exogenous cholesterol contained in the liposome which was re-constituted according to the method disclosed in the literature: Biochimica et Biophysica Acta, 1213, 127-134, 1994, and calculated from the radioactivity of the labeled cholesterolyl oleate.
Molecule,melting point [°C],ACAT inhibitory rate (%) 10^−6 M (ACAT [1]) [%],"inhibition at 1 µM (ACAT [2]; 10^−6 M, read-out: ACAT inhibitory rate (%) 10^−6 M) [%]",ACAT inhibitory rate (%) 10^−6 M (ACAT [2]) [%]
CCCCn1c(=O)c(NC(=O)Nc2cc(CN(C)C)ccc2C(C)(C)C)c(-c2cccc(OC)c2)c2cccnc21 (as salt: hydrochloride) [Example 30],174 to 175,,,
CCCCn1c(=O)c(NC(=O)Nc2cc(CNC)ccc2C(C)(C)C)c(-c2cccc(OC)c2)c2cccnc21 (as salt: hydrochloride) [Example 31],163 to 165,,,
CCCCn1c(=O)c(NC(=O)Nc2cc(CNCC)ccc2C(C)(C)C)c(-c2cccc(OC)c2)c2cccnc21 (as salt: hydrochloride) [Example 32],158 to 161,,,
"CCCCn1c(=O)c(NC(=O)Nc2cc(CN3CCOCC3)ccc2C(C)(C)C)c(-c2cccc(OC)c2)c2cccnc21 [Example 1, N-[1-butyl-4-(3-methoxyphenyl)-1,2-dihydro-2-oxo-1,8-naphthyridin-3yl]-N′-[2-tert-butyl-5-(morpholinomethyl)phenyl]urea]",,98,97,
"N-[1-butyl-4-(3-methoxyphenyl)-1,2-dihydro-2-oxo-1,8-naphthyridin-3-yl]-N′-[2-tert-butyl-5-(1-pyrazolylmethyl)phenyl]urea [Example 19]",,99,,73
